Experimental data reported in patent US5773459A, “Urea- and thiourea-type compounds” (Sugen, Inc., priority 1995, dated 1998).
pIC50: −log10 of the molar value. Like-named read-outs stand apart in the source and are kept apart here.

How the values were obtained:
[1] = biological target: T1, Insulin Receptor (Homo sapiens, UniProt P06213); experiment: Cellular Insulin Receptor ELISA; format: cell-based
T1 construct: host or cells: H25 (NIH3T3)
Procedure: Cellular Insulin Receptor ELISA (Version I)
The following protocol describes the cell line, reagents and procedures used to measure phosphotyrosine level on Insulin Receptor, which indicates Insulin Receptor tyrosine kinase activity.
(2). H25 cells are grown in an incubator with 5% CO2 at 37° C. The growth media is DMEM+10% FBS (heat inactivated)+2 mM L-Glutamine.
(3). For ELISA plate coating, the monoclonal anti-IR antibody named BBE is used. Antibodies are purified by the Enzymology Lab, SUGEN, Inc.
(2). […] Incubate for 1 day then replace medium to 0.01% serum medium (90/ul) and incubate in 5% CO2 and 37° C. overnight.
2. ELISA Plate Coating and Blocking
(2). Remove the coating solution, and replace with 100 ul Blocking Buffer, and shake for 30 minutes. Remove the blocking buffer and wash the plate just before adding lysate.
(1). The drugs are tested in serum-free condition.
(2). Dilute drug stock (in 100% DMSO) 1:10 with DMEM in 96-well poly-propylene plate, and transfer 10 ul/well of this solution to the cells to achieve final drug dilution 1:100, and final DMSO concentration of 1.0%. Incubate the cells in 5% CO2 at 37° C. for 2 hours.
(3). Prepare fresh cell lysis buffer (HNTG*) HNTG 2 ml EDTA 0.1 ml Na3VO4 0.1 ml Na4P2O7 0.1 ml H20 7.3 ml HNTG* 10 ml.
(4). After drug incubation for two hours, transfer 10 ul/well of 1 μM Insulin in PBS to the cells (Final Conc=100 nM), and incubate at 5% CO2 at 37° C. for 10 minutes.
(5). Remove media and add 100ul/well HNTG* and shake for 10 minutes. Look at cells under microscope to see if they are adequately lysed.
(6). Use a 12-channel pipette to scrape the cells from the plate, and homogenize the lysate by repeat aspiration and dispense. Transfer all the lysate to the antibody coated ELISA plate [V.2.(2)], and shake for 1 hour.
(7). Remove the lysate, wash the plate, transfer anti-pTyr (1:3,000 with TBST) 100 ul/well, and shake for 30 minutes.
(8). Remove anti-pTyr, wash the plate, transfer detection antibody (1:3,000 with TBST) 100 ul/well, and shake for 30 minutes.
(9). […]

[2] = system: 3T3/IGF-1R cells; experiment: IGF-1 Receptor Growth Assay (3T3/IGF-1R cells, SRB); format: cell-based
Procedure: Sulforhodamine B (SRB) Assay for Adherent Cells
Sulforhodamine B assays for measuring effects of TBST compounds on cell growth were based on procedures described by Skehan et al. J. Natl. Cancer Inst. 82:1107, 1990 incorporated herein by reference in its entirety, including any drawings. Unless otherwise stated the assays were carried out aseptically as follows:
IGF-1 Receptor Growth Assay
Cell lines: 3T3/IGF-1 R (10% FBS/2 mM glutamine/DMEM) NIH 3T3 c7 (10% calf serum/2 mM glutamine/DMEM) NOTE: NIH 3T3 cells (and cells derived from them) should never be allowed to become confluent because this increases the chance of spontaneous transformation. If they show signs of being transformed (morphological changes, piling up, moving into clumps), throw them away and thaw a fresh batch.
Materials: 10% FBS/2 mM glutamine/DMEM 0.5% FBS/2 mM glutamine/DMEM 10% calf serum/2 mM glutamine/DMEM IGF-1, 5 μM in sterile PBS (Promega/Fisher cat. #G5111) DMSO, tissue culture grade (Sigma cat. #D 2650) Hits from screen 11, 100 mM in DMSO 96-well plates, flat and round bottom 8 channel pipettor and sterile tips sterile reagent reservoirs sterile tubes (1.5 or 15 ml)
Methods (carry all steps out under asceptic conditions until fixing the cells for the SRB assay):
Day 0: Cell Plating--Trypsinize and count 3T3/IGF-1R and NIH 3T3 c7 cells. Dilute in growth media to 2000 cells/200 μl and seed flat bottom 96-well plates with 200 μl/well, one plate for two compounds for each cell line.
Day 1: Compound preparation--Add DMSO to each compound to make 100 mM stock solutions.
Aliquot each compound to 3-4 sterile screw cap tubes and store at -20° C. After thawing, make sure the compound has gone completely back into solution. Throw away after 3 freeze/thaws.
3T3/IGF-1R cells--For each 96-well plate, make 15 ml of 10 nM IGF-1/0.5% FBS/2 mM glutamine/DMEM (30 μl of 5 μM IGF-1/15 ml).
Aliquot 1.5 ml 10 nM IGF-1/0.5% FBS to a sterile tube for each compound to be tested (the first time a compound is tested, use a 15 ml tube in case it is necessary to add extra medium to get it into solution).
Add 3 μl of 100 mM stock of each compound to a tube so 200 μM final. Shake or vortex until it goes into solution. If it is necessary to add additional medium, note the final concentration.
For the DMSO control, prepare 0.5 ml/plate of 0.2% DMSO/10 nM IGF-1/0.5% FBS (2 μl DMSO/ml).
For every two compounds, aliquot 130 μl 10 nM IGF-1/0.5% FBS to wells in columns 2-11 of a 96-well round bottom plate.
Add 260 μl of each compound to four wells in column 12.
Do 2-fold dilutions (130 μl) from columns 12 to 3 on each plate (column 2 will be for the untreated control), mixing thoroughly.
Remove medium from 3T3/IGF-1 R cells, one plate at a time. […]

[3] = H25 cells (NIH3T3 overexpressing Insulin Receptor), insulin stimulated, read-out: ELISA DATA: IR
[4] = read-out: GROWTH DATA: 3T3/IGF1R-0.5% FBS
[5] = read-out: GROWTH DATA: 3T3/IGF1R-10% FBS

T1 sequence (P06213 28-1382, species assumed): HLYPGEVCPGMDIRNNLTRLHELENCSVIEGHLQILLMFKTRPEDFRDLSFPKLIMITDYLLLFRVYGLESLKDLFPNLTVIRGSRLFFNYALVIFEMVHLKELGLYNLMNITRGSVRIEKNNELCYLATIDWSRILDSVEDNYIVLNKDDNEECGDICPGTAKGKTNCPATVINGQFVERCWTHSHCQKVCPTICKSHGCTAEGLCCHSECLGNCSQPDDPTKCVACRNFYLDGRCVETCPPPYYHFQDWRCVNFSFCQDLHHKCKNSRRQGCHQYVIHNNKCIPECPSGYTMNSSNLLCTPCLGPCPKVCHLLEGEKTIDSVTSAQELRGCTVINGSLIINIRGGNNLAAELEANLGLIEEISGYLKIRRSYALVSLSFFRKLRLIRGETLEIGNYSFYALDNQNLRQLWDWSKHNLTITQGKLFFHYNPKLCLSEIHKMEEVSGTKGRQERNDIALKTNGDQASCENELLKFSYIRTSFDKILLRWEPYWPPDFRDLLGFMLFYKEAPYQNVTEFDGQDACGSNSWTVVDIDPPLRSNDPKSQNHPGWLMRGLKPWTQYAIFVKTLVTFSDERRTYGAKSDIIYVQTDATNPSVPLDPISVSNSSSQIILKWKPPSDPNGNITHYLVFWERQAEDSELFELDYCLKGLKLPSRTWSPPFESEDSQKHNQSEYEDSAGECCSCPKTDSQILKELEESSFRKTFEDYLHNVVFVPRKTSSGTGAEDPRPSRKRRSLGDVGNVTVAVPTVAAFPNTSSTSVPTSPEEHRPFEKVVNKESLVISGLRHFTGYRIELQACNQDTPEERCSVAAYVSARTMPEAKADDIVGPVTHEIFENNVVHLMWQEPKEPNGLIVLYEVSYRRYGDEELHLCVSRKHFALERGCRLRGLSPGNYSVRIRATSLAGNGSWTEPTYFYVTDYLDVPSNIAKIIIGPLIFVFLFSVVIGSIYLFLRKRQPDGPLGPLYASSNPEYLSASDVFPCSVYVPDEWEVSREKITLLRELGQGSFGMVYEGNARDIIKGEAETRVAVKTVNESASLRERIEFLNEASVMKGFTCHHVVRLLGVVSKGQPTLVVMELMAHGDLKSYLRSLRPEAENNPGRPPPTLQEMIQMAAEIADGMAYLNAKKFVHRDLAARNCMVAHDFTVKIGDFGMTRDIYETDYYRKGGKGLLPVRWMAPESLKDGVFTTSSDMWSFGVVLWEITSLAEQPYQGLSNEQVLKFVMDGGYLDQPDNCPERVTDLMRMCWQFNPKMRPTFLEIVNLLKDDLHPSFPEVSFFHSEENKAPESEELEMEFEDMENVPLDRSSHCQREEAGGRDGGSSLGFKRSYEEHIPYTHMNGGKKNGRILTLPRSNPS

CC(C)S(=O)(=O)c1csc(NC(=O)Nc2cc(C(F)(F)F)cc(C(F)(F)F)c2)c1Cl [Example Z2, N-[3-Chloro-4-(isopropylsulfonyl)thien-2-yl]-N'-(3,5-di-trifluoromethylphenyl)urea]
pIC50 [1, 3]: < 4.00
pIC50 [2, 4]: 6.15
pIC50 [2, 5]: 4.70

O=C(Nc1ccc(SC(F)(F)F)cc1)Nc1ccc(Oc2ccc(Cl)cc2Cl)nc1 [Example Z3]
pIC50 [1]: < 4.00
pIC50 [2, 4]: 6.22
pIC50 [2, 5]: 4.74

CC(C)S(=O)(=O)c1csc(NC(=O)Nc2ccc(C(C)(C)C)cc2)c1Cl [Example Z1, N-[3-Chloro-4-(isopropylsulfonyl)thien-2-yl]-N'-(4-t-butylphenyl)urea]
pIC50 [1, 3]: < 4.00
